Assay results: PubChem BioAssay (NCI)
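The concentration for 50% growth inhibition is given as GI50. At the TGI there is no net growth.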

How the values were obtained:
Test in all cases: growth of human tumour cells (NCI), 384-well format
DU-145 prostate = system: DU-145 prostate
NCI-H460 NSCLC = system: NCI-H460 NSCLC
SF-295 CNS = system: SF-295 CNS
RXF 393 renal = system: RXF 393 renal
SK-MEL-5 melanoma = system: SK-MEL-5 melanoma
A498 renal = system: A498 renal
M14 melanoma = system: M14 melanoma
SK-OV-3 ovarian = system: SK-OV-3 ovarian
SN12C renal = system: SN12C renal
MDA-MB-435 melanoma = system: MDA-MB-435 melanoma
SNB-75 CNS = system: SNB-75 CNS
SR leukemia = system: SR leukemia
A549 NSCLC = system: A549 NSCLC
OVCAR-5 ovarian = system: OVCAR-5 ovarian
SF-268 CNS = system: SF-268 CNS
HOP-62 NSCLC = system: HOP-62 NSCLC
786-0 renal = system: 786-0 renal
T-47D breast = system: T-47D breast
U251 glioblastoma = system: U251 glioblastoma
SNB-19 CNS = system: SNB-19 CNS
ACHN renal = system: ACHN renal
NCI-H226 lung = system: NCI-H226 lung
UO-31 renal = system: UO-31 renal
HL-60(TB) leukemia = system: HL-60(TB) leukemia
KM12 colon = system: KM12 colon
NCI/ADR-RES ovarian = system: NCI/ADR-RES ovarian
CAKI-1 renal = system: CAKI-1 renal
TK-10 renal = system: TK-10 renal
UACC-62 melanoma = system: UACC-62 melanoma
MDA-MB-468 breast = system: MDA-MB-468 breast
LOX IMVI melanoma = system: LOX IMVI melanoma
BT-549 breast = system: BT-549 breast
HCT-116 colon = system: HCT-116 colon
EKVX NSCLC = system: EKVX NSCLC
PC-3 prostate = system: PC-3 prostate
HS 578T breast = system: HS 578T breast
OVCAR-3 ovarian = system: OVCAR-3 ovarian
MOLT-4 leukemia = system: MOLT-4 leukemia
NCI-H322M lung = system: NCI-H322M lung
HCT-15 colon = system: HCT-15 colon
OVCAR-4 ovarian = system: OVCAR-4 ovarian
IGROV1 ovarian = system: IGROV1 ovarian
SK-MEL-28 melanoma = system: SK-MEL-28 melanoma
UACC-257 melanoma = system: UACC-257 melanoma
MCF7 breast = system: MCF7 breast
NCI-H23 lung = system: NCI-H23 lung
MALME-3M melanoma = system: MALME-3M melanoma
CCRF-CEM leukemia = system: CCRF-CEM leukemia
OVCAR-8 ovarian = system: OVCAR-8 ovarian
SW-620 colon = system: SW-620 colon
HOP-92 NSCLC = system: HOP-92 NSCLC
NCI-H522 lung = system: NCI-H522 lung
RPMI-8226 leukemia = system: RPMI-8226 leukemia
SF-539 CNS = system: SF-539 CNS

COc1ccc(CN2C3CC2CN(c2ccc(-c4cc(OCC(C)(C)O)cn5ncc(C#N)c45)cn2)C3)cn1
GI50 (DU-145 prostate): 28.3 µM
TGI (DU-145 prostate): > 100 µM
GI50 (NCI-H460 NSCLC): 5.11 µM
TGI (NCI-H460 NSCLC): > 100 µM
GI50 (SF-295 CNS): 5.36 µM
TGI (SF-295 CNS): 9.56 µM
GI50 (RXF 393 renal): 4.29 µM
TGI (RXF 393 renal): 7.91 µM
GI50 (SK-MEL-5 melanoma): > 31.6 µM
TGI (SK-MEL-5 melanoma): > 31.6 µM
GI50 (A498 renal): > 38.3 µM
TGI (A498 renal): > 100 µM
GI50 (M14 melanoma): > 82 µM
TGI (M14 melanoma): > 100 µM
GI50 (SK-OV-3 ovarian): 24.3 µM
TGI (SK-OV-3 ovarian): > 31.6 µM
GI50 (SN12C renal): 2.44 µM
TGI (SN12C renal): > 45.8 µM
GI50 (MDA-MB-435 melanoma): > 100 µM
TGI (MDA-MB-435 melanoma): > 100 µM
GI50 (SNB-75 CNS): 1.85 µM
TGI (SNB-75 CNS): 7.29 µM
GI50 (SR leukemia): 1.64 µM
TGI (SR leukemia): 3.24 µM
GI50 (A549 NSCLC): 7.53 µM
TGI (A549 NSCLC): > 31.6 µM
GI50 (OVCAR-5 ovarian): > 100 µM
TGI (OVCAR-5 ovarian): > 100 µM
GI50 (SF-268 CNS): > 26.8 µM
TGI (SF-268 CNS): > 100 µM
GI50 (HOP-62 NSCLC): 8.51 µM
TGI (HOP-62 NSCLC): > 31.6 µM
GI50 (786-0 renal): 57.3 µM
TGI (786-0 renal): > 100 µM
GI50 (T-47D breast): > 31.6 µM
TGI (T-47D breast): > 31.6 µM
GI50 (U251 glioblastoma): > 31.6 µM
TGI (U251 glioblastoma): > 31.6 µM
GI50 (SNB-19 CNS): > 100 µM
TGI (SNB-19 CNS): > 100 µM
GI50 (ACHN renal): 25.4 µM
TGI (ACHN renal): > 100 µM
GI50 (NCI-H226 lung): 2.94 µM
TGI (NCI-H226 lung): 15.4 µM
GI50 (UO-31 renal): > 100 µM
TGI (UO-31 renal): > 100 µM
GI50 (HL-60(TB) leukemia): 4.36 µM
TGI (HL-60(TB) leukemia): 11.5 µM
GI50 (KM12 colon): > 100 µM
TGI (KM12 colon): > 100 µM
GI50 (NCI/ADR-RES ovarian): 21.4 µM
TGI (NCI/ADR-RES ovarian): > 100 µM
GI50 (CAKI-1 renal): 5.02 µM
TGI (CAKI-1 renal): > 100 µM
GI50 (TK-10 renal): > 31.6 µM
TGI (TK-10 renal): > 31.6 µM
GI50 (UACC-62 melanoma): 98.7 µM
TGI (UACC-62 melanoma): > 100 µM
GI50 (MDA-MB-468 breast): 5.75 µM
TGI (MDA-MB-468 breast): 9.04 µM
GI50 (LOX IMVI melanoma): 50.8 µM
TGI (LOX IMVI melanoma): > 100 µM
GI50 (BT-549 breast): 1.87 µM
TGI (BT-549 breast): 7.68 µM
GI50 (HCT-116 colon): 24.2 µM
TGI (HCT-116 colon): > 100 µM
GI50 (EKVX NSCLC): > 31.6 µM
TGI (EKVX NSCLC): > 31.6 µM
GI50 (PC-3 prostate): > 100 µM
TGI (PC-3 prostate): > 100 µM
GI50 (HS 578T breast): 6.92 µM
TGI (HS 578T breast): > 50.1 µM
GI50 (OVCAR-3 ovarian): > 28.5 µM
TGI (OVCAR-3 ovarian): > 100 µM
GI50 (MOLT-4 leukemia): 1.58 µM
TGI (MOLT-4 leukemia): 3.13 µM
GI50 (NCI-H322M lung): > 74 µM
TGI (NCI-H322M lung): > 100 µM
GI50 (HCT-15 colon): 9.55 µM
TGI (HCT-15 colon): > 31.6 µM
GI50 (OVCAR-4 ovarian): 5.26 µM
TGI (OVCAR-4 ovarian): > 100 µM
GI50 (IGROV1 ovarian): 7.33 µM
TGI (IGROV1 ovarian): > 60 µM
GI50 (SK-MEL-28 melanoma): > 100 µM
TGI (SK-MEL-28 melanoma): > 100 µM
GI50 (UACC-257 melanoma): > 31.6 µM
TGI (UACC-257 melanoma): > 31.6 µM
GI50 (MCF7 breast): > 31.6 µM
TGI (MCF7 breast): > 31.6 µM
GI50 (NCI-H23 lung): 8.4 µM
TGI (NCI-H23 lung): 27.8 µM
GI50 (MALME-3M melanoma): > 28.9 µM
TGI (MALME-3M melanoma): > 100 µM
GI50 (CCRF-CEM leukemia): 1.99 µM
TGI (CCRF-CEM leukemia): 3.76 µM
GI50 (OVCAR-8 ovarian): 22.3 µM
TGI (OVCAR-8 ovarian): > 31.6 µM
GI50 (SW-620 colon): 4.99 µM
TGI (SW-620 colon): > 100 µM
GI50 (HOP-92 NSCLC): 2.92 µM
TGI (HOP-92 NSCLC): 38.1 µM
GI50 (NCI-H522 lung): 7.9 µM
TGI (NCI-H522 lung): > 31.6 µM
GI50 (RPMI-8226 leukemia): > 28.8 µM
TGI (RPMI-8226 leukemia): > 31.6 µM
GI50 (SF-539 CNS): 2.08 µM
TGI (SF-539 CNS): 6.86 µM
